Data set [1] deals with T1, SAV2435 WT (S. aureus Gyrl-like protein, wild type, SEQ ID NO:2) (Staphylococcus aureus, UniProt A0A0H3K0Y5).
T1 construct: listing organism Escherichia coli is only the host
It is filed as binding.

Data set [2] has as its target T2, CTR107 WT (C. tepidium Gyrl-like protein, wild type, SEQ ID NO:4) (Chlorobaculum tepidum, UniProt Q8KFZ1).
T2 construct: begins […]
Description: biochemical. It counts as binding. The note with it: for Kd: read-out: dissociation constant.

For data set [3], the target named is T3, LIN2189 WT (L. innocua Gyrl-like protein, wild type, SEQ ID NO:6) (Listeria innocua, UniProt Q929T5).
T3 construct: recombinant, purified
T3 sequence (Q929T5 with tags, fused parts or gaps): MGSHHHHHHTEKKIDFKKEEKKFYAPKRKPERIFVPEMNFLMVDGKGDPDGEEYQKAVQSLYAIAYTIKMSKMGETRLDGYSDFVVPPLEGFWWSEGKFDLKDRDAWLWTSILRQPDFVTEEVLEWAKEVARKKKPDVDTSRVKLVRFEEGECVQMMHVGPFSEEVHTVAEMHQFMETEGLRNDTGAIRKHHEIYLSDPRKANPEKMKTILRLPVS
Description: Fluorescence binding assay (enhancement/quenching of dye fluorescence). On the procedure:
Fluorescence Binding Assay
CTR107 when added at 10 μM induced a 10-fold increase in DFHBI fluorescence (FIG. 6A).
Malachite Green fluoresces in the far-red regions when stimulated by binding aptamers, therefore we monitored its fluorescence emission at 665-720 nm after exciting at 635 nm.
Thioflavin T is a benzothiazole dye that has also been used in many fluorescence applications. […] The Corn aptamer is able to bind to two Thioflavin T molecules at a homodimer interface formed by G-quadruplexes. We tested whether Gyrl-like proteins could function as fluorescence enhancement aptamers of Thioflavin T. Thioflavin T has excitation and emission maxima of […], respectively. We probed the fluorescence enhancing properties of SAV2435, CTR107 and LIN2189 variants on Thioflavin T (FIG. 8). […] All other variants display either a small 4-6 fold increase or no increase in Thioflavin T fluorescence.

Data set [4] addresses T4, C. tepidium CTR107 variant Y106W (SEQ ID NO:20) (Chlorobaculum tepidum, UniProt Q8KFZ1, Y106W).
T4 sequence (Q8KFZ1 with tags, fused parts or gaps Y106W): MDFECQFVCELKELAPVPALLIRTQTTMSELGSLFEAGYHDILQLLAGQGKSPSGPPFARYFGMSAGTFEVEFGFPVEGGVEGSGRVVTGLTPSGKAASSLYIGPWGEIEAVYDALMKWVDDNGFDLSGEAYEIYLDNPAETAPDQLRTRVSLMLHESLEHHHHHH
Nature of the data set: biochemical. It counts as binding.

Data set [5] deals with C. tepidium CTR107 variant Y106W (SEQ ID NO:20). Nature of the data set: biochemical. It is filed as binding. Particulars: Daunorubicin.
The target in data set [6] is S. aureus SAV2435 variant V105W (SEQ ID NO:10) (Staphylococcus aureus, UniProt A0A0H3K0Y5, V105W). It is filed as binding. Particulars: Thiazole Orange.
Data set [7] addresses S. aureus SAV2435 variant P106W (SEQ ID NO:12) (Staphylococcus aureus, UniProt A0A0H3K0Y5, P106W). It is filed as binding. The note with it: Thiazole Orange.
Data set [8] concerns the target C. tepidium CTR107 variant E36R (SEQ ID NO:18) (Chlorobaculum tepidum, UniProt Q8KFZ1, E36R). It is filed as binding. Particulars: 500 nM SYTO9.
Data set [9] addresses T5, C. tepidium CTR107 variant E133Q (SEQ ID NO:22) (Chlorobaculum tepidum, UniProt Q8KFZ1, E133Q).
T5 sequence (Q8KFZ1 with tags, fused parts or gaps E133Q): T4 sequence (Q8KFZ1 with tags, fused parts or gaps Y106W) with W106Y, E133Q
It is filed as binding. Particulars: 500 nM SYTO9.

Data set [10] is described as follows: Acridine Orange fluorescence assay. Particulars: 500 nM Acridine Orange.
Data set [11] is described as follows: pH stability of Thiazole Orange fluorescence module.
Where [12] appears, read: 500 nM Malachite Green, 10 μM protein, ex 635 nm, em 665-720 nm.
Where [13] appears, read: 1 μM Thiazole Orange, saturating protein.
Setting [14] is: 1 μM SYTO9, 10 μM protein, em 665-720 nm.
Setting [15] is: 1 μM SYTO9, 10 μM protein, ex 470 nm, em 510-580 nm.

The text below walks through data of patent US12104201B2, “Engineered gyri-like mutein aptamers, and related methods” (CROSSLIFE TECHNOLOGIES INC., priority 2019, dated 2024).

Substitutions are numbered along the chain they refer to. Numbers in names are those of the source. Entries after “also recorded” stand apart in the source; their conditions may differ. Where two headings read alike, the source gives them in different places.

T2 sequence (Q8KFZ1 entry or part of it): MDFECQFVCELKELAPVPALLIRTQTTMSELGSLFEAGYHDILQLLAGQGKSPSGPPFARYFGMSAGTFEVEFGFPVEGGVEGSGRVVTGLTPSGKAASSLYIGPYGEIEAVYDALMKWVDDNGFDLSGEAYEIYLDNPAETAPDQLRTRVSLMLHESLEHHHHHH
Sequence of C. tepidium CTR107 variant E36R (SEQ ID NO:18) (Q8KFZ1 entry or part of it E36R): as the sequence (Q8KFZ1 entry or part of it) above, with E36R counted along it

Consider `CC1=N/C(=C\c2cc(F)c(O)c(F)c2)C(=O)N1C` [DFHBI], for which the “increase in fluorescence (green channel)” value in [1] (500 nM DFHBI, 10 μM protein) was 20 fold. In [2] (DFHBI, 10 μM protein), this molecule had an increase in fluorescence of 10 fold. Moreover, the effect on fluorescence entry in data set [3] (500 nM DFHBI) is given as “no effect on fluorescence”.
With `COc1cccc2c1C(=O)c1c(O)c3c(c(O)c1C2=O)C[C@@](O)(C(C)=O)C[C@@H]3O[C@H]1C[C@H](N)[C@H](O)[C@H](C)O1` [Daunorubicin], the “fluorescence decrease (green channel)” value in data set [2] (50 μM daunorubicin) is on record as “greater than 2 fold”; in data set [4] (50 μM daunorubicin), 3 fold. Moreover, the Kd in data set [2] (Daunorubicin, nonlinear regression, Hill equation) was determined as 4000 nM; in [4], 42 nM. For the same molecule, the “increase in binding affinity compared to wildtype CTR107” value in data set [5] was “approximately 100 fold”.
`CN(C)c1ccc(C(=C2C=CC(=[N+](C)C)C=C2)c2ccccc2)cc1` [Malachite Green]: the “increase in fluorescence (red channel)” value is reported as 10 fold in data set [1] (setting [12]) and 18 fold in data set [2] (setting [12]). The “effect on fluorescence enhancement” value in data set [3] (500 nM Malachite Green) was “no effect on fluorescence enhancement”.
Turning to `CN1C(=Cc2cc[n+](C)c3ccccc23)Sc2ccccc21` [Thiazole Orange], in [1] (setting [13]), the “increase in fluorescence (green channel)” value was 50 fold. Also, the “increase in fluorescence (red channel)” value in data set [1] (setting [13]) is on record as 5 fold. Besides, in data set [1] (Thiazole Orange), the “fluorescence increase (channel not stated)” value was 20 fold. Further, the figures for the effect on fluorescence entry in data set [2] (setting [13]) and in data set [3] (setting [13]) were “no effects; also recorded: no enhancement” and “no effects”, respectively. For the same molecule, the “fluorescence enhancement (green channel)” value in data set [4] (Thiazole Orange) worked out at 13 fold. In addition, the “fluorescence enhancement (red channel)” value in [4] (Thiazole Orange) came to 20 fold. For the same molecule, the “fluorescence enhancement vs. dye alone (red channel)” value in data set [6] and in data set [7] was 50 fold in each case. Further, the “enhancement relative to wildtype” value in [6] (vs SAV2435 WT) and in data set [7] (vs SAV2435 WT) was 3 fold each time.
With `Cc1ccc2c(c1)sc(-c1ccc(N(C)C)cc1)[n+]2C` [Thioflavin T], the “fluorescence enhancement (green and red channel)” value in [2] (Thioflavin T) amounted to 50 fold. Also, in data set [3] (Thioflavin T), the “fluorescence enhancement (green channel)” value was found to be 13 fold and the “fluorescence enhancement (red channel)” value is 50 fold.
For SYTO9, the “fluorescence enhancement (red channel)” value in data set [1] (setting [14]) is given as 11 fold; in data set [2] (setting [14]), 33 fold; in [4] (500 nM SYTO9) it was 19 fold; in [9], 55 fold. In addition, the “fluorescence enhancement (green channel)” value in data set [1] (setting [15]) is recorded as 21 fold; in data set [2] (setting [15]) it was 84 fold; in data set [4] (500 nM SYTO9), 115 fold; in data set [9], 157 fold. For the same molecule, the Kd in data set [2] (SYTO9, estimated, fluorescence enhancement vs. protein concentration, Hill fit) was 302 nM. In addition, the “fluorescence enhancement (red and green channel)” value in [3] (SYTO9) is “small enhancement”. In [8], the “fluorescence enhancement compared to wildtype CTR107” value is given as “weaker enhancement than wildtype”.

B1: SAV2435 P106W: SAV2435 variant aptamer, SEQ ID NO:12 (protein, listed as Escherichia coli)
chain: MEYQLQQLASLTLVGIKETYENGRQAQQHIAGFWQRCYQEGVIADLQLKNNGDLAGILGLCIPELDGKMSYMIAVTGDNSADIAKYDVITLASSKYMVFEAQGAVWKAVQQKMEEVHHYIHQYQANTVKSAPFFELYQDGDTTSEKYITEIWMPVKGLEHHHHHH
Regarding B1, the “Acridine Orange fluorescence increase” value in [10] was “doubled the fluorescence intensity”. In [11] (pH 3), the “decrease in Thiazole Orange fluorescence under acidic conditions” value was 2 fold. Further, the “stability of Thiazole Orange fluorescence under basic conditions” value in [11] (pH 11) is reported as “slightly more stable than acidic”.

B2: SAV2435 E135Q: SAV2435 variant aptamer, SEQ ID NO:14 (protein, listed as Escherichia coli)
chain: B1 chain with V105W, W106P, E135Q
Turning to B2, the “Acridine Orange fluorescence increase” value in data set [10] is reported as “doubled the fluorescence intensity”.
